Source: US7687435B2, “Benzoyl-substituted phenylalanineamides” (BASF Aktiengesellschaft, priority 2003, dated 2010)

What was measured:
green foxtail = test: greenhouse post-emergence herbicidal test, green foxtail; format: in vivo, Setaria viridis
From the text: (§1) The seeds of the test plants were sown separately for each species. For the post-emergence treatment, the test plants were first grown to a height of 3 to 15 cm, depending on the plant habit, and only then treated with the active ingredients which had been suspended or emulsified in water. For this purpose, the test plants were either sown directly and grown in the same containers, or they were first grown separately as seedlings and transplanted into the test containers a few days prior to treatment. The rate of application for the post-emergence treatment was 1.0, 0.5, 0.25, 0.125 or 0.0625 kg/ha of a.s. (active substance). Depending on the species, the plants were kept at 10-25° C. or 20-35° C. The test period extended over 2 to 4 weeks. During this time, the plants were tended, and their response to the individual treatments was evaluated. Evaluation was carried out using a scale from 0 to 100. 100 means no emergence of the plants, or complete destruction of at least the aerial parts, and 0 means no damage, or normal course of growth. The plants used in the greenhouse experiments belonged to the following species: [table]

lambsquarters = test: greenhouse post-emergence herbicidal test, lambsquarters; format: in vivo, Chenopodium album
From the text: as §1

pig weed = test: greenhouse post-emergence herbicidal test, pig weed; format: in vivo, Amaranthus retroflexus
From the text: as §1

black bindweed = test: greenhouse post-emergence herbicidal test, black bindweed; format: in vivo, Polygonum convolvulus
From the text: as §1

cleavers harrif = test: greenhouse post-emergence herbicidal test, cleavers harrif; format: in vivo, Galium aparine
From the text: as §1

velvet leaf = test: greenhouse post-emergence herbicidal test, velvet leaf; format: in vivo, Abutilon theophrasti; settings: application rate 0.5 kg/ha
From the text: as §1

wild oat = test: greenhouse post-emergence herbicidal test, wild oat; format: in vivo, Avena fatua; settings: application rate 0.5 kg/ha
From the text: as §1

CNC(=O)C(NC(=O)c1ccccc1C(F)(F)F)C(O)c1ccccc1 (racemic) [Compound 3.2]
post-emergence action against green foxtail (green foxtail; application rate 1.00 kg/ha): very good | post-emergence action against lambsquarters (lambsquarters; application rate 1.00 kg/ha): very good | post-emergence action against pig weed (pig weed; application rate 1.00 kg/ha): very good

CNC(=O)C(NC(=O)c1ccc(F)cc1C(F)(F)F)C(O)c1ccccc1[N+](=O)[O-] (racemic) [Compound 3.67]
post-emergence action against green foxtail (green foxtail; application rate 1.00 kg/ha): very good | post-emergence action against lambsquarters (lambsquarters; application rate 1.00 kg/ha): very good | post-emergence action against pig weed (pig weed; application rate 1.00 kg/ha): very good

CNC(=O)C(NC(=O)c1ccc(F)cc1C(F)(F)F)C(OC(=O)N(C)C)c1cccc(N)c1 (racemic) [Compound 3.123]
post-emergence action against lambsquarters (lambsquarters; application rate 1.00 kg/ha): very good | post-emergence action on black bindweed (black bindweed; application rate 1.00 kg/ha): very good | post-emergence action against pig weed (pig weed; application rate 1.00 kg/ha): very good

CNC(=O)C(NC(=O)c1ccc(F)cc1C(F)(F)F)C(OC(=O)N(C)C)c1cccc(NS(C)(=O)=O)c1 (racemic) [Compound 3.128]
post-emergence action against green foxtail (green foxtail; application rate 1.00 kg/ha): very good | post-emergence action against lambsquarters (lambsquarters; application rate 1.00 kg/ha): very good | post-emergence action against pig weed (pig weed; application rate 1.00 kg/ha): very good

CNC(=O)C(NC(=O)c1ccc(F)cc1C(F)(F)F)C(O[Si](C)(C)C(C)(C)C)c1ccccc1 (racemic) [Compound 3.154]
post-emergence action against green foxtail (green foxtail; application rate 1.00 kg/ha): very good | post-emergence action against lambsquarters (lambsquarters; application rate 1.00 kg/ha): very good | post-emergence action on black bindweed (black bindweed; application rate 1.00 kg/ha): very good | post-emergence control of cleavers harrif (cleavers harrif; application rate 1.0 kg/ha): very good | post-emergence action against pig weed (pig weed; application rate 1.00 kg/ha): very good

CNC(=O)C(NC(=O)c1cccc([N+](=O)[O-])c1C)C(O)c1ccccc1 (racemic) [Compound 5.20]
post-emergence action on velvet leaf (velvet leaf): very good

CNC(=O)C(NC(=O)c1ccccc1OC(F)(F)F)C(O)c1ccccc1 (racemic) [Compound 5.36]
post-emergence action on velvet leaf (velvet leaf): very good

CNC(=O)C(NC(=O)c1ccccc1SC(F)F)C(O)c1ccccc1 (racemic) [Compound 5.37]
post-emergence action on velvet leaf (velvet leaf): controlled | post-emergence control of wild oat (wild oat): controlled

CNC(=O)[C@@H](NC(=O)c1ccc(F)cc1C(F)(F)F)[C@H](O)c1cccc(F)c1C [Compound 3.10]
post-emergence action against green foxtail (green foxtail; application rate 1.00 kg/ha): very good | post-emergence action against lambsquarters (lambsquarters; application rate 1.00 kg/ha): very good | post-emergence action against pig weed (pig weed; application rate 1.00 kg/ha): very good

CNC(=O)[C@@H](NC(=O)c1ccc(F)cc1C(F)(F)F)[C@H](O)c1cccc(Cl)c1C [Compound 3.11]
post-emergence action against green foxtail (green foxtail; application rate 1.00 kg/ha): very good | post-emergence action against lambsquarters (lambsquarters; application rate 1.00 kg/ha): very good | post-emergence action against pig weed (pig weed; application rate 1.00 kg/ha): very good

CNC(=O)C(NC(=O)c1ccc(F)cc1C(F)(F)F)C(OC(=O)N(C)C)c1ccccc1C (stereo not shown) [Compound 3.28]
post-emergence action against green foxtail (green foxtail; application rate 1.00 kg/ha): very good | post-emergence action against lambsquarters (lambsquarters; application rate 1.00 kg/ha): very good | post-emergence action against pig weed (pig weed; application rate 1.00 kg/ha): very good

CNC(=O)C(NC(=O)c1ccc(F)cc1C(F)(F)F)C(c1ccccc1)N(C=O)Cc1ccccc1 (stereo not shown) [Compound 3.43, N-[2-(N-Benzyl-N-formylamino)-1-methylcarbamoyl-2-phenylethyl]-4-fluoro-2-trifluoromethylbenzamide]
melting point: 212 °C

CNC(=O)C(NC(=O)c1ccc(F)cc1C(F)(F)F)C(O)c1ccccc1CO (stereo not shown) [Compound 3.61]
post-emergence action against lambsquarters (lambsquarters; application rate 0.5 kg/ha): very good | post-emergence action on black bindweed (black bindweed; application rate 0.5 kg/ha): very good | post-emergence control of cleavers harrif (cleavers harrif; application rate 0.5 kg/ha): very good | post-emergence action against pig weed (pig weed; application rate 0.5 kg/ha): very good

CNC(=O)C(NC(=O)c1ccc(F)cc1C(F)(F)F)C(O)c1ccccc1COC(C)=O (stereo not shown) [Compound 3.62]
post-emergence action against green foxtail (green foxtail; application rate 0.5 kg/ha): very good | post-emergence action against lambsquarters (lambsquarters; application rate 0.5 kg/ha): very good | post-emergence control of cleavers harrif (cleavers harrif; application rate 0.5 kg/ha): very good | post-emergence action against pig weed (pig weed; application rate 0.5 kg/ha): very good

CNC(=O)C(NC(=O)c1ccc(F)cc1C(F)(F)F)C(O)c1ccccc1COS(C)(=O)=O (stereo not shown) [Compound 3.65]
post-emergence action against lambsquarters (lambsquarters; application rate 0.5 kg/ha): very good | post-emergence action on black bindweed (black bindweed; application rate 0.5 kg/ha): very good | post-emergence action against pig weed (pig weed; application rate 0.5 kg/ha): very good

CNC(=O)C(NC(=O)c1ccc(F)cc1C(F)(F)F)C(O)c1ccccc1OCc1ccccc1 (stereo not shown) [Compound 3.66]
post-emergence action against green foxtail (green foxtail; application rate 1.00 kg/ha): very good | post-emergence action against lambsquarters (lambsquarters; application rate 1.00 kg/ha): very good | post-emergence action against pig weed (pig weed; application rate 1.00 kg/ha): very good

CNC(=O)C(NC(=O)c1ccc(F)cc1C(F)(F)F)C(OC(=O)COCCOCCOC)c1ccccc1COC(=O)COCCOCCOC (stereo not shown) [Compound 3.96]
post-emergence action against lambsquarters (lambsquarters; application rate 0.5 kg/ha): very good | post-emergence action on black bindweed (black bindweed; application rate 0.5 kg/ha): very good | post-emergence control of cleavers harrif (cleavers harrif; application rate 0.5 kg/ha): very good | post-emergence action against pig weed (pig weed; application rate 0.5 kg/ha): very good

CNC(=O)C(NC(=O)c1ccc(F)cc1C(F)(F)F)C(OC(=O)N(C)C)c1ccccc1COC(=O)N(C)C (stereo not shown) [Compound 3.131]
post-emergence action against lambsquarters (lambsquarters; application rate 0.5 kg/ha): very good | post-emergence action on black bindweed (black bindweed; application rate 0.5 kg/ha): very good | post-emergence control of cleavers harrif (cleavers harrif; application rate 0.5 kg/ha): very good | post-emergence action against pig weed (pig weed; application rate 0.5 kg/ha): very good

CNC(=O)[C@@H](NC(=O)c1ccc(F)cc1C(F)(F)F)[C@H](OC(=O)NS(=O)(=O)C(F)(F)F)c1cccc(F)c1C [Compound 3.137]
post-emergence action against lambsquarters (lambsquarters; application rate 1.00 kg/ha): very good | post-emergence action on black bindweed (black bindweed; application rate 1.00 kg/ha): very good | post-emergence action against pig weed (pig weed; application rate 1.00 kg/ha): very good

CC[Si](CC)(CC)OCc1ccccc1C(O[Si](CC)(CC)CC)C(NC(=O)c1ccc(F)cc1C(F)(F)F)C(=O)NC (stereo not shown) [Compound 3.152]
post-emergence action against green foxtail (green foxtail; application rate 1.00 kg/ha): very good | post-emergence action against lambsquarters (lambsquarters; application rate 1.00 kg/ha): very good | post-emergence control of cleavers harrif (cleavers harrif; application rate 1.0 kg/ha): very good | post-emergence action against pig weed (pig weed; application rate 1.00 kg/ha): very good

CNC(=O)[C@@H](NC(=O)c1ccc(F)cc1C(F)(F)F)[C@H](OC(=O)COCCOCCOC)c1ccc(F)c(F)c1F [Compound 4.24]
post-emergence action against green foxtail (green foxtail; application rate 0.5 kg/ha): very good | post-emergence action against lambsquarters (lambsquarters; application rate 0.5 kg/ha): very good | post-emergence control of cleavers harrif (cleavers harrif; application rate 0.5 kg/ha): very good | post-emergence action against pig weed (pig weed; application rate 0.5 kg/ha): very good
